Experimental data published in patent publication US8465945B2, “Method for production and use of mite group 1 proteins” (Merck Patent GmbH, priority 1999, dated 2013).

Target: T1, P. pastoris-expressed Der f 1 protein (Dermatophagoides farinae, UniProt P16311, D282V)
T1 construct: The Der f 1 protein secreted as a mature form by recombinant cell P. pastoris HCY215; S. cerevisiae alpha factor signal peptide (with KEX2 site and Glu-Ala spacer) (N, cleaved yes); made in house; host or cells: Pichia pastoris strain X33 transformed with pBC128 (recombinant cell HCY215)
Test: Inhibition of rDer f 1 cysteine protease activity by E-64
Type: biochemical, D. farinae
Details: E-64 1 μg/ml
Protocol: Native Der f 1 is believed to be a cysteine protease, based on homology to papain; see, for example, Chua et al, 1992, J Exp Med 167, 175-182. The Der f 1 protein secreted as a mature form by recombinant cell P. pastoris HCY215 (i.e., P. pastoris strain X33 transformed with plasmid pBC128 containing nucleic acid molecule nDerf1909b (coding strand of SEQ ID NO:28) which encodes the pro-form of Der f 1 (amino acid sequence SEQ ID NO:29)) was tested for cysteine protease activity in the following manner. Three concentrations of protein were tested for their abilities to cleave an artificial substrate in the presence or absence of a cysteine protease inhibitor. Specifically, three pairs of samples containing 0.56 μg, 1.1 μg, or 5.6 μg of P. pastoris-expressed Der f 1 protein, respectively, were incubated for 30 minutes at room temperature in 20 μl of 50 mM Tris-HCl, pH 8. One member of each pair also contained the irreversible cysteine protease inhibitor E-64 at a concentration of 1 μg/ml. After the pre-incubation, 100 μl of 50 μM quenched fluorogenic substrate z-Val-Leu-Arg-AMC (available from Enzyme Systems Products, Livermore, Calif.) was added to all six samples, and the samples were incubated for 2 hours at room temperature. Fluorescence was measured using a Perkin Elmer Luminescence Spectrometer (model #LS50B) at an excitation wavelength of 380nm and an emission wavelength of 460 nm.

T1 sequence (P16311 99-321 D282V): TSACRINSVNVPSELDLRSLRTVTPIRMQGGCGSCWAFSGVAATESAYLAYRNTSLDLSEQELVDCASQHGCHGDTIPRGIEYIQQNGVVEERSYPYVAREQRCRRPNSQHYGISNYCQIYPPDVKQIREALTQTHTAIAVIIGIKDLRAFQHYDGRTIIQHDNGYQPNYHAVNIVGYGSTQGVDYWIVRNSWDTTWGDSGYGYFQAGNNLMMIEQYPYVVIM

CC(C)C[C@H](NC(=O)[C@H]1O[C@@H]1C(=O)O)C(=O)NCCCCN=C(N)N [E-64]
% Inhibition E-64 (0.56 micrograms rDer f 1): 65%
% Inhibition E-64 (1.1 micrograms rDer f 1): 55%
% Inhibition E-64 (5.6 micrograms rDer f 1): 76%
